Results as given in patent publication EP4703359A1 (Shanghai Simr Biotechnology Co., Ltd., priority 2023, dated 2024).
Like-named read-outs stand apart in the source and are kept apart here.

Key:
α2-GABAA receptor [1] = biological target: T1, α2-GABAA receptor (Homo sapiens, UniProt P18507+P47869); test: Whole-cell patch-clamp electrophysiology, positive allosteric modulatory activity in α2-GABAAR-HEK293 cells; format: cell-based; conditions: compound 100 nM, GABA 0.10 to 0.11 µM (approximately EC7-8), normalized to reference compound CVL-865 (= 100%); for Emax at 0.1 µM: read-out: α2-GABAAR Positive allosteric modulatory activity
T1 construct: expressed in transfected cells
How it was run: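 HEK293 cells stably co-expressing α2β3γ2 GABAA receptor, whole-cell patch clamp at -60 mV. Compounds at 100 nM final applied with GABA 0.10–0.11 µM (~EC7-8) after GABA-only current stabilized. […]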

α2-GABAA receptor [2] = biological target: T1, α2-GABAA receptor; test: Radioactive ligand (3H-flunitrazepam) competitive binding assay, BZD site of membrane proteins of α2-GABAAR-HEK293 cells
Description: The α subunit, β subunit, and γ subunit are indispensable for forming a fully functional GABAA receptor. In this example, HEK293 cells stably expressing α2-GABAA receptors (α2-GABAAR) were constructed and screened respectively via liposome transfection (Felgner, P.L., et al. Proceedings of the National Academy of Sciences, 1987, 84: 7413-7417). The α2-GABAAR-HEK293 cell model co-expresses the α2 subunit (protein sequence referenced under GenBank accession number: NM_000807.4), β3 subunit (protein sequence referenced under GenBank accession number: NM_000814.5), and γ2 subunit (protein sequence referenced under GenBank accession number: NM_000816.3).
The above cell lines were subcultured. α2-GABAAR-HEK293 cells were amplified for testing the affinity of compounds to the benzodiazepine (BZD) site of GABAA receptors. Some of the α2-GABAAR-HEK293 cells in suspension during subculturing were plated on glass slides pre-treated with Poly-D-Lysine for electrophysiological testing (method reference: Patent CN 107344936 A, paragraph 0586).
The affinity of the compound for the α2-GABAA receptor was determined by competing with ^3H-flunitrazepam (isotope ^3H-labeled flunitrazepam) for binding to the BZD site of membrane proteins in HEK293 cells stably expressing human α2-GABAAR.
Membrane preparation: Cells were suspended in 50 mM Tris-HCl buffer (pH=7.4), homogenized on ice using a homogenizer for 20 seconds with 10 repetitions, and centrifuged at 4°C, 1000g for 10 minutes. The supernatant was collected, and the above steps were repeated. The supernatant was centrifuged at 4°C (33,800 × g; Thermo, rotor: A27-8x50) for 60 minutes, and the pellet was resuspended in Tris buffer (50 mM Tris-HCl, 10 mM MgCl2, 0.5 mM EDTA, 10% glycerol). The protein concentration was determined using the bicinchoninic acid (BCA) protein assay based on the copper ion reduction method (BCA kit purchased from Pierce (Annoron)). Aliquots of 1 mL were prepared and stored at -80°C.
Radioactive ligand competitive binding assay: This assay was conducted in a 200 µL system (96-well plate), containing 100 µL of cell membrane. The concentration of ^3H-flunitrazepam was 1 nM, and the concentration of the test compound ranged from […]. Flumazenil was used as a control. The low signal control well (Low Control, LC) was added with 1 µL of 2 mM flumazenil (final concentration 10 µM), while the high signal control well (High Control, HC) was added with 1 µL of dimethyl sulfoxide. The final concentration of the target membrane protein was 5 µg/well. All test compound stock solutions were prepared as 10 mM solutions in dimethyl sulfoxide. The working concentration of the samples was prepared by diluting all samples to 0.2 mM with dimethyl sulfoxide, followed by a 4-fold serial dilution to obtain a total of 8 concentration gradients. The 96-well plate was sealed with sealing film and then incubated on a shaker at room temperature for 1 hour. The GF/C filter plate was also soaked with a soaking buffer (0.3% PEI (polyethyleneimine, purchased from: Sigma-Aldrich, model: P314), stored at 4°C) for at least 0.5 hours. After the incubation was completed, the mixture was collected onto a GF/C filter plate using a cell harvester and washed four times with wash buffer (50 mM Tris-HCl, pH 7.4, stored at 4°C). After drying in a 50°C oven for 1 hour, the dried GF/C filter plate was sealed at the bottom with a film. The residual radioactivity on the filter membrane was detected using liquid scintillation counting. Each well was filled with 50 µL of scintillation fluid and sealed. Readings were taken using a Microbeta^2 (microplate counter, purchased from PerkinElmer, model: CNLL0153). The inhibitory activity of the test sample on the binding of ^3H-flunitrazepam to GABAA receptor membrane protein was calculated. […]

[3] = competition with 1 nM 3H-flunitrazepam; HEK293 membranes expressing α2, β3, γ2 subunits; Ki calculated from IC50; read-out: α2 Ki

Row | SMILES | Emax at 0.1 µM (α2-GABAA receptor [1]) | Ki (α2-GABAA receptor [2]; [3]) | α2-GABAAR Positive allosteric modulatory activity (α2-GABAA receptor [1]) | Ki (α2-GABAA receptor [2]; read-out: α2 Ki; competition with 1 nM 3H-flunitrazepam; HEK293 membranes expressing α2, β3, γ2 subunits; Ki calculated from IC50)
1 | CCCNC(=O)c1nc2c(-c3cccc(F)c3)cccn2c1N [Example 46, 3-Amino-8-(3-fluorophenyl)-N-propylimidazo[1,2-a]pyridine-2-carboxamide] | 50% | 18.7 nM | – | –
2 | CCCNC(=O)c1nc2c(-c3cc(F)ccc3OC)cccn2c1N [Example 51] | – | – | 121% | 26 nM
3 | CCCNC(=O)c1nc2c(-c3cc(F)cnc3OC)cccn2c1N [Example 84, 3-Amino-8-(5-fluoro-2-methoxypyridin-3-yl)-N-propylimidazo[1,2-a]pyridine-2-carboxamide] | 133% | 42 nM | – | –
4 | CCCNC(=O)c1nc2c(-c3cccc(CC#N)c3)cccn2c1N [Example 36, 3-amino-8-(3-(cyanomethyl)phenyl)-N-propylimidazo[1,2-a]pyridine-2-carboxamide] | 181% | 21.2 nM | – | –
5 | CCCNC(=O)c1nc2c(-c3c(F)cccc3OC)cccn2c1N [Example 3, 3-Amino-8-(2-fluoro-6-methoxyphenyl)-N-propylimidazo[1,2-a]pyridine-2-carboxamide] | 105% | 24 nM | – | –
6 | CCCNC(=O)c1nc2c(-c3ccccc3OC)cccn2c1N [Example 61, 3-Amino-8-(2-methoxyphenyl)-N-propylimidazo[1,2-a]pyridine-2-carboxamide] | 91% | 39.4 nM | – | –
7 | CCCNC(=O)c1nc2c(-c3c(F)cccc3OC)nccn2c1N [Example 135, 3-amino-8-(2-fluoro-6-methoxyphenyl)-N-propylimidazo[1,2-a]pyrazine-2-carboxamide] | 60% | 81.1 nM | – | –
8 | CCCNC(=O)c1nc2c(-c3cccnc3OC)cccn2c1N [Example 82, 3-Amino-8-(2-methoxypyridin-3-yl)-N-propylimidazo[1,2-a]pyridine-2-carboxamide] | 93% | 22.3 nM | – | –
9 | CCCNC(=O)c1nc2c(-c3cnccc3OC)cccn2c1N [Example 85, 3-Amino-8-(4-methoxypyridin-3-yl)-N-propylimidazo[1,2-a]pyridine-2-carboxamide] | 100% | 17.2 nM | – | –
10 | COc1cccc(F)c1-c1cccn2c(N)c(C(=O)NCC3CC3)nc12 [Example 6, 3-Amino-N-(cyclopropylmethyl)-8-(2-fluoro-6-methoxyphenyl)imidazo[1,2-a]pyridine-2-carboxamide] | 57% | 24 nM | – | –
11 | COc1cccc(F)c1-c1cccn2c(N)c(C(=O)NC3CCC3)nc12 [Example 7, 3-Amino-8-(2-fluoro-6-methoxyphenyl)-N-cyclobutylimidazo[1,2-a]pyridine-2-carboxamide] | 52% | 14.9 nM | – | –
12 | CCCNC(=O)c1nc2c(-c3ccc(F)cc3OC)cccn2c1N [Example 53, 3-Amino-8-(4-fluoro-2-methoxyphenyl)-N-propylimidazo[1,2-a]pyridine-2-carboxamide] | 92% | 57 nM | – | –
13 | COc1cccc(F)c1-c1cccn2c(N)c(C(=O)NCCCF)nc12 [Example 27, 3-Amino-8-(2-fluoro-6-methoxyphenyl)-N-(3-fluoropropyl)imidazo[1,2-a]pyridine-2-carboxamide] | 84% | 32 nM | – | –
14 | CCCNC(=O)c1nc2c(-c3cc(OC)ccc3OC)cccn2c1N [Example 69, 3-Amino-8-(2,5-dimethoxyphenyl)-N-propylimidazo[1,2-a]pyridine-2-carboxamide] | 70% | 30.8 nM | – | –
15 | CCCNC(=O)c1nc2c(-c3cc(C(F)(F)F)ccc3OC)cccn2c1N [Example 58, 3-Amino-8-(2-methoxy-5-(trifluoromethyl)phenyl)-N-propylimidazo[1,2-a]pyridine-2-carboxamide] | 103% | 34.5 nM | – | –
16 | [2H]c1ccc(OC)c(-c2cccn3c(N)c(C(=O)NCCC)nc23)c1F [Example 136, 3-Amino-8-(2-fluoro-6-methoxyphenyl-3-d)-N-propylimidazo[1,2-a]pyridine-2-carboxamide] | 91% | 17.6 nM | – | –

More lines, main results first:

Row | Emax at 0.1 µM (α2-GABAA receptor [1]) | Ki (α2-GABAA receptor [2]; [3]) | SMILES | α2-GABAAR Positive allosteric modulatory activity (α2-GABAA receptor [1]) | Ki (α2-GABAA receptor [2]; read-out: α2 Ki; competition with 1 nM 3H-flunitrazepam; HEK293 membranes expressing α2, β3, γ2 subunits; Ki calculated from IC50)
17 | 130% | 7.43 nM | CCCNC(=O)c1nc2c(-c3cc(-c4cnnc5c4ncn5CC)ccc3OC)cccn2c1N [Example 71, 3-Amino-8-(5-(7-ethyl-7H-imidazo[4,5-c]pyridazin-4-yl)-2-methoxyphenyl)-N-propylimidazo[1,2-a]pyridine-2-carboxamide] | – | –
18 | 71% | 14.2 nM | CCCNC(=O)c1nc2c(-c3cccc(C)c3)cccn2c1N [Example 48, 3-Amino-N-propyl-8-(3-methylphenyl)imidazo[1,2-a]pyridine-2-carboxamide] | – | –
19 | 71% | 10.2 nM | CCCNC(=O)c1nc2c(-c3cccc(OC)c3F)cccn2c1N [Example 63, 3-Amino-8-(2-fluoro-3-methoxyphenyl)-N-propylimidazo[1,2-a]pyridine-2-carboxamide] | – | –
20 | 104% | 3.95 nM | CCCNC(=O)c1nc2c(-c3cc(C)ccc3F)cccn2c1N [Example 50, 3-Amino-8-(2-fluoro-5-methylphenyl)-N-propylimidazo[1,2-a]pyridine-2-carboxamide] | – | –
21 | 105% | 11.4 nM | CCCNC(=O)c1nc2c(-c3c(F)cccc3OC)c(F)ccn2c1N [Example 122, 3-Amino-7-fluoro-8-(2-fluoro-6-methoxyphenyl)-N-propylimidazo[1,2-a]pyridine-2-carboxamide] | – | –
22 | 167% | 3.32 nM | CCCNC(=O)c1nc2c(-c3cccc(C#N)c3F)cccn2c1N [Example 57, 3-Amino-8-(3-cyano-2-fluorophenyl)-N-propylimidazo[1,2-a]pyridine-2-carboxamide] | – | –
23 | 50% | 7.33 nM | COc1ccc(F)c(F)c1-c1cccn2c(N)c(C(=O)NC3CC(C)C3)nc12 (stereo not shown) [Example 32, 3-Amino-8-(2,3-difluoro-6-methoxyphenyl)-N-(3-methylcyclobutyl)imidazo[1,2-a]pyridine-2-carboxamide] | – | –
24 | 65% | 13.9 nM | COc1cccc(F)c1-c1cccn2c(N)c(C(=O)NCc3ccccc3)nc12 [Example 19, 3-Amino-N-benzyl-8-(2-fluoro-6-methoxyphenyl)imidazo[1,2-a]pyridine-2-carboxamide] | – | –
25 | 63% | 11.2 nM | CCCNC(=O)c1nc2c(-c3cc(F)ccc3F)cccn2c1N [Example 52, 3-Amino-8-(2,5-difluorophenyl)-N-propylimidazo[1,2-a]pyridine-2-carboxamide] | – | –
26 | 97% | 13.5 nM | [2H]c1ccc(F)c(-c2cccn3c(N)c(C(=O)NCCC)nc23)c1OC [Example 137, 3-Amino-8-(2-fluoro-6-methoxyphenyl-5-d)-N-propylimidazo[1,2-a]pyridine-2-carboxamide] | – | –
